Values quoted from earlier work in patent US20120202839A1, “METHODS AND COMPOSITIONS FOR DETERRING ABUSE OF ORALLY ADMINISTERED PHARMACEUTICAL PRODUCTS” (priority 2004, published 2012).

Settings: oral ingestion; typical threshold

SMILES: O=S(=O)([O-])[O-].[Zn+2] [ZINC SULFATE]
- amount ingested above which emesis is induced, typically: more than 0.6 gm
